SMILES strings stand for the structures. “And” between values parts separate entries of the source, which are not always exact repeats. Equal values may be shown once. Inconclusive results and toxic doses are left out.

This is an account of results in PubChem BioAssay AID330 (DTP/NCI, 2004).

The subject of the test is P388 leukemia ip, CD2F1 mice, survival T/C. Put plainly: NCI In Vivo Anticancer Drug Screen. Data for tumor model P388 Leukemia (intraperitoneal) in CD2F1 (CDF1) mice. The note with it: endpoint: median survival time, higher = longer survival. The method in brief:
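Mice carrying the transplanted tumor received test compound or vehicle. Survival was recorded in each group, and the value is the treated-group measurement divided by that of the vehicle-treated control group.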

The mark [1] stands for this setting: dose: 60.0 mg/kg/injection, schedule: Q01DX005 (ip), vehicle: saline with Tween-80.
Setting [2] is: dose: 120.0 mg/kg/injection, schedule: Q01DX005 (ip), vehicle: saline with Tween-80.
Where [3] appears, read: dose: 240.0 mg/kg/injection, schedule: Q01DX005 (ip), vehicle: saline with Tween-80.
[4] abbreviates: dose: 12.5 mg/kg/injection, schedule: Q01DX009 (ip), vehicle: Klucel (hydroxypropylcellulose) (HPC).
[5] abbreviates: dose: 25.0 mg/kg/injection, schedule: Q01DX005 (ip), vehicle: saline with Tween-80.
The mark [6] stands for this setting: dose: 50.0 mg/kg/injection, schedule: Q01DX005 (ip), vehicle: Klucel (hydroxypropylcellulose) (HPC).
The mark [7] stands for this setting: dose: 100.0 mg/kg/injection, schedule: Q01DX005 (ip), vehicle: Klucel (hydroxypropylcellulose) (HPC).
[8] abbreviates: dose: 100.0 mg/kg/injection, schedule: Q04DX002 (ip), vehicle: Klucel (hydroxypropylcellulose) (HPC).
Where [9] appears, read: dose: 200.0 mg/kg/injection, schedule: Q04DX002 (ip), vehicle: Klucel (hydroxypropylcellulose) (HPC).
The mark [10] stands for this setting: dose: 50.0 mg/kg/injection, schedule: Q01DX005 (ip), vehicle: saline with Tween-80.
Setting [11] is: dose: 100.0 mg/kg/injection, schedule: Q01DX005 (ip), vehicle: saline with Tween-80.
Where [12] appears, read: dose: 200.0 mg/kg/injection, schedule: Q01DX005 (ip), vehicle: saline with Tween-80.
Setting [13] is: dose: 25.0 mg/kg/injection, schedule: Q01DX005 (ip), vehicle: Klucel (hydroxypropylcellulose) (HPC).

Consider `CCCCc1ccc(-c2nn[nH]n2)nc1`, for which the T/C by setting is: (dose: 25.0 mg/kg/injection, schedule: Q04DX002 (ip), vehicle: saline with Tween-80) 101 % of control; (dose: 50.0 mg/kg/injection, schedule: Q04DX002 (ip), vehicle: saline with Tween-80) 100 % of control and 102 % of control; (dose: 100.0 mg/kg/injection, schedule: Q04DX002 (ip), vehicle: saline with Tween-80) 100 % of control and 102 % of control and 104 % of control; (dose: 200.0 mg/kg/injection, schedule: Q04DX002 (ip), vehicle: saline with Tween-80) 105 % of control and 123 % of control and 95 % of control.

Take `CN=NNc1ccc(C)cc1`: the T/C is 96 % of control and 97 % of control (dose: 12.5 mg/kg/injection, schedule: Q01DX009 (ip), vehicle: distilled water + Tween-80); 100 % of control (dose: 25.0 mg/kg/injection, schedule: Q01DX009 (ip), vehicle: distilled water + Tween-80); 100 % of control and 124 % of control (dose: 50.0 mg/kg/injection, schedule: Q01DX009 (ip), vehicle: distilled water + Tween-80); 123 % of control (dose: 100.0 mg/kg/injection, schedule: Q01DX009 (ip), vehicle: distilled water + Tween-80).

As to `CC(=O)NC1CCOC1=O` (stereo not drawn), the T/C runs as follows: (dose: 12.5 mg/kg/injection, schedule: Q01DX009 (ip), vehicle: water) 95 % of control; (dose: 25.0 mg/kg/injection, schedule: Q01DX009 (ip), vehicle: water) 87 % of control; (dose: 50.0 mg/kg/injection, schedule: Q01DX009 (ip), vehicle: water) 109 % of control; (dose: 100.0 mg/kg/injection, schedule: Q01DX009 (ip), vehicle: water) 111 % of control; (dose: 200.0 mg/kg/injection, schedule: Q01DX009 (ip), vehicle: water) 92 % of control.

For `Oc1cc2c(cc1C(c1ccc3c(c1)OCO3)N1CCOCC1)OCO2` (stereo not drawn), the T/C reads like this: under setting [1], 118 % of control; under setting [2], 106 % of control; under setting [3], 111 % of control.

For `CC1=NNC(=O)C1(Br)Br`, the T/C by setting is: (dose: 3.13 mg/kg/injection, schedule: Q01DX009 (ip), vehicle: Klucel (hydroxypropylcellulose) (HPC)) 90 % of control; (dose: 6.25 mg/kg/injection, schedule: Q01DX009 (ip), vehicle: Klucel (hydroxypropylcellulose) (HPC)) 100 % of control; under setting [4], 100 % of control.

Turning to `C=CCn1c(-c2ccccn2)n[nH]c1=S`, the T/C reads like this: under setting [1], 102 % of control; under setting [2], 101 % of control; under setting [3], 100 % of control.

For `CC(=O)N(C)c1ccc(NC(=O)Nc2cc(C)ccc2C)cc1`, the T/C was 91 % of control (dose: 50.0 mg/kg/injection, schedule: Q01DX009 (ip), vehicle: saline) and 88 % of control (dose: 100.0 mg/kg/injection, schedule: Q01DX009 (ip), vehicle: saline).

On to `CN(C)c1ccc(/C(O)=C\c2ncnc3ccccc23)cc1`, for which the T/C is 94 % of control under setting [1], 94 % of control under setting [2] and 93 % of control under setting [3].

Consider `CO[C@@]12[C@@H]3N[C@@H]3CN1C1=C(C(=O)C(N3CCCC3)=C(C)C1=O)[C@@H]2COC(N)=O`, for which the T/C is 193 % of control (dose: 0.78 mg/kg/injection, schedule: Q01DX005 (ip), vehicle: saline with Tween-80); 186 % of control (dose: 3.75 mg/kg/injection, schedule: Q01DX005 (ip), vehicle: saline with Tween-80); 214 % of control (dose: 10.4 mg/kg/injection, schedule: Q01DX005 (ip), vehicle: saline with Tween-80); 214 % of control (dose: 17.4 mg/kg/injection, schedule: Q01DX005 (ip), vehicle: saline with Tween-80); 87 % of control under setting [5].

As to `CCCCc1ccc(-n2c(C)c(COC(=O)NC)c(COC(=O)NC)c2C)cc1`, the T/C under setting [4] was 172 % of control and 190 % of control; the T/C (dose: 25.0 mg/kg/injection, schedule: Q01DX009 (ip), vehicle: Klucel (hydroxypropylcellulose) (HPC)) was 152 % of control and 190 % of control.

Take `CNC(=N)c1ccc(NC(=N)c2ccc(NC(=N)c3ccc(NC(=O)Nc4ccc(C(=N)Nc5ccc(C(=N)Nc6ccc(C(=N)NC)cc6)cc5)cc4)cc3)cc2)cc1`: the T/C reads like this: (dose: 1.78 mg/kg/injection, schedule: Q04DX003 (ip), vehicle: saline with Tween-80) 108 % of control; (dose: 2.66 mg/kg/injection, schedule: Q04DX003 (ip), vehicle: saline with Tween-80) 108 % of control; (dose: 4.0 mg/kg/injection, schedule: Q04DX003 (ip), vehicle: saline with Tween-80) 116 % of control.

Regarding `Cc1ccc(S(=O)(=O)NC(=O)n2nc(C)cc2C)cc1`, the T/C is, setting by setting: under setting [6], 96 % of control; under setting [7], 96 % of control; (dose: 200.0 mg/kg/injection, schedule: Q01DX005 (ip), vehicle: Klucel (hydroxypropylcellulose) (HPC)) 103 % of control.

With `NC(=O)c1cnc2nc1NCCCCCCC2`, the T/C is 100 % of control under setting [8]; 98 % of control under setting [9]; 90 % of control (dose: 400.0 mg/kg/injection, schedule: Q04DX002 (ip), vehicle: Klucel (hydroxypropylcellulose) (HPC)).

On to `CC(C)C(=O)OCC(C)(C)C(OC(=O)COc1ccc(Cl)cc1Cl)C(C)C` (stereo not drawn), for which the T/C reads like this: under setting [10], 101 % of control; under setting [11], 106 % of control; under setting [12], 97 % of control.

Consider `CCOc1c/c(=N\N=C(/C)c2ccc(Cl)cc2)n(C)c(=O)n1C`, for which the T/C by setting is: (dose: 50.0 mg/kg/injection, schedule: Q01DX009 (ip), vehicle: Klucel (hydroxypropylcellulose) (HPC)) 93 % of control; (dose: 100.0 mg/kg/injection, schedule: Q01DX009 (ip), vehicle: Klucel (hydroxypropylcellulose) (HPC)) 96 % of control; (dose: 200.0 mg/kg/injection, schedule: Q01DX009 (ip), vehicle: Klucel (hydroxypropylcellulose) (HPC)) 100 % of control.

For `CN(C)CCSSCCN(C)C.[Cl][Zn][Cl]`, the T/C is 102 % of control (dose: 6.25 mg/kg/injection, schedule: Q01DX005 (ip), vehicle: Klucel (hydroxypropylcellulose) (HPC)); 95 % of control (dose: 12.5 mg/kg/injection, schedule: Q01DX005 (ip), vehicle: Klucel (hydroxypropylcellulose) (HPC)); 97 % of control under setting [13].

As for `CN1CCC2CC1c1ccn(C)c1C2=O` (stereo not drawn), the T/C is 93 % of control (dose: 7.5 mg/kg/injection, schedule: Q01DX005 (ip), vehicle: saline); 96 % of control (dose: 15.0 mg/kg/injection, schedule: Q01DX005 (ip), vehicle: saline); 106 % of control (dose: 30.0 mg/kg/injection, schedule: Q01DX005 (ip), vehicle: saline).

In the case of `CCCCCCCN(CCCCCCC)CCCC(O)c1cccc2ccccc12` (stereo not drawn), the T/C was 104 % of control (dose: 12.5 mg/kg/injection, schedule: Q01DX005 (ip), vehicle: saline with Tween-80); 107 % of control under setting [5]; 103 % of control under setting [10]; 107 % of control under setting [11].

In the case of `COc1ccccc1C1=[N+]([O-])C(C)(C)C(c2ccccc2)C1` (stereo not drawn), the T/C is 104 % of control under setting [8] and 102 % of control under setting [9].

For `O=C1CS[C@@H]2C(=O)CCCC2C1` (stereo partly drawn), the T/C under setting [10] was 98 % of control, the T/C under setting [11] is 98 % of control and the T/C under setting [12] is 92 % of control.

Consider `O=c1[nH]cnc2nc(/N=N/SCCO)[nH]c12`, for which the T/C under setting [13] is 104 % of control, the T/C under setting [6] is 110 % of control and the T/C under setting [7] was 119 % of control.

With `CCCCCCCCCCCCCCCCS.[Ge]`, the T/C reads like this: (dose: 12.5 mg/kg/injection, schedule: Q01DX009 (ip), vehicle: saline with Tween-80) 106 % of control; (dose: 25.0 mg/kg/injection, schedule: Q01DX009 (ip), vehicle: saline with Tween-80) 98 % of control; (dose: 50.0 mg/kg/injection, schedule: Q01DX009 (ip), vehicle: saline with Tween-80) 104 % of control.

As to `Brc1cc(Br)cc(CN2CCOCC2)c1`, the T/C reads like this: under setting [1], 98 % of control; under setting [2], 100 % of control; under setting [3], 106 % of control.

On to `Oc1c[nH]c(=S)s1`, for which the T/C runs as follows: (dose: 12.5 mg/kg/injection, schedule: Q01DX009 (ip), vehicle: other) 112 % of control; (dose: 25.0 mg/kg/injection, schedule: Q01DX009 (ip), vehicle: other) 106 % of control; (dose: 50.0 mg/kg/injection, schedule: Q01DX009 (ip), vehicle: other) 111 % of control; (dose: 100.0 mg/kg/injection, schedule: Q01DX009 (ip), vehicle: other) 102 % of control; (dose: 200.0 mg/kg/injection, schedule: Q01DX009 (ip), vehicle: other) 117 % of control.
